Reference: patent US7687473B2, “5-amino-4-imidazolecarboxamide riboside and its nucleobase as potentiators of antifolate transport and metabolism” (Health Research, Inc., priority 2005, dated 2010)

Tests used:
CCRF-CEM cells [1] = test: [3H]MTX uptake (initial velocity and 30 min accumulation) in CCRF-CEM cells; format: cell-based, human; settings: for Q10 for extent of [3H]MTX uptake at 30 min / Q10 for vi of [3H]MTX uptake (37° vs. 27°): 1 μM TMTX; for Vmax/Kt from vi (0-5 min) data: 1-10 μM MTX
Protocol: (§1) Quantitation of folate and antifolate uptake. The method is essentially as follows. Briefly, logarithmically growing (3-5×10^5/ml) CCRF-CEM cells were harvested at room temperature by centrifugation at 1000×g for 5 min. After washing with the appropriate medium, cells were suspended at ≈2×10^7 cells/ml for use in transport studies. […] Anion-free MHS contains 250 mM sucrose and 20 mM HEPES, titrated to pH 7.4 with MgO. […] Uptake was measured as a function of time for 30 min (for rate and extent measurements) or over 5 min (studies requiring initial velocities). […] Uptake was terminated by diluting 100 μL samples into 1 ml of iced 0.9% NaCl. […] The supernatant was aspirated. The cell pellet was washed once with 1 ml iced 0.9% NaCl and centrifuged as above. The washed pellet was solubilized in 1 ml of 0.3% Triton X-100 by incubation for 60 min at 37° C. The solubilized pellet was transferred to a scintillation vial, 10 ml of Liquiscint (National Diagnostics, Atlanta, Ga.) was added and radioactivity was quantitated in a Beckman Model LS6500 liquid scintillation counter. Separate samples at the longest incubation time used in a particular experiment were harvested for HPLC analysis of intracellular contents as above, except that after the second wash the pellets were extracted with 1 ml boiling 0.1 M Na-phosphate, pH 5.5. The extract was clarified by centrifugation and the supernatant was filtered through an MPS-1 filter unit (Amicon) prior to HPLC analysis.

[2] = target: T1, reduced folate carrier (RFC) (Homo sapiens, UniProt P41440); test: Kinetic constants for influx of [3H]MTX by CCRF-CEM cells; format: cell-based
T1 construct: endogenous in cells; host or cells: CCRF-CEM (parental)
T1 sequence (P41440 1-591): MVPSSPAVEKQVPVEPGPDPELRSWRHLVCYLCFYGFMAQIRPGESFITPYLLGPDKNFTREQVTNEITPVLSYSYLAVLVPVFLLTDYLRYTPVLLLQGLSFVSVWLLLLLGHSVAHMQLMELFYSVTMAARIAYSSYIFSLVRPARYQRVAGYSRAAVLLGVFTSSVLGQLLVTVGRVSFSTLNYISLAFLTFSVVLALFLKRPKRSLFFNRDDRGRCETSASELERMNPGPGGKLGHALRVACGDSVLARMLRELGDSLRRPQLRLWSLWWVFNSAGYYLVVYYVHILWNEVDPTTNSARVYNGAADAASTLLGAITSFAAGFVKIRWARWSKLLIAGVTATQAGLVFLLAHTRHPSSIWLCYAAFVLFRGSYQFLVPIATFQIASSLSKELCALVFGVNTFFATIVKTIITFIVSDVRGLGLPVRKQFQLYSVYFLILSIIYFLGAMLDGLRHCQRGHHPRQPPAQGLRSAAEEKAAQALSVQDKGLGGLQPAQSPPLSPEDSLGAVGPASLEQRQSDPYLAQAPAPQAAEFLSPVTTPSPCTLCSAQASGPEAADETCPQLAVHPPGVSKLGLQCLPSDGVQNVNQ
Protocol: as §1
Inhibition of the vi of uptake was measured after pre-incubation of CCRF-CEM cells either with TMTX alone (measuring inhibition at the RFC) or with TMTX+Z (measuring inhibition during Z potentiation). […] All studies were carried out in standard transport medium. Inhibitory potency was measured in two series of experiments and AMT was included in each series as an internal control. Values are average±range of two determinations. […] Values are average±range for duplicate determinations.

[3] = test system: CCRF-CEM human leukemia cells; test: Synthesis of methotrexate polyglutamates by CCRF-CEM cells; format: cell-based
Protocol: MTX polyglutamate synthesis. […] At the end of the exposure cells were rapidly chilled to 4 degrees C., harvested by centrifugation at 1000×g for 5 min, washed twice with iced 0.9% NaCl by centrifugation in the same manner. One mL of boiling 50 mM Na-phosphate, pH 5.5 was added, the pellet was triturated and the sample boiled for 5 min. The sample was rapidly cooled to 4 degrees C. Debris was removed by centrifugation as above. The supernatant was further clarified by centrifugation through an Amicon MPS-1 filter unit. […] A suitable volume was injected onto a reversed-phase HPLC column (C18) and eluted with a gradient of from 4-14% acetonitrile over about 43 min. One min fractions were collected and, after addition of 10 ml scintillation fluid, were quantitated by liquid scintillation counting.

CCRF-CEM cells [4] = test: [3H]MTX efflux from CCRF-CEM cells
CCRF-CEM cells [5] = test: Protein-bound intracellular [3H]MTX; format: cell-based, human
Protocol: The cell pellet was frozen immediately at less than or equal to −80 degrees C. To process, 1 ml iced lysis buffer was added to the pellet immediately after removal from the freezer and the pellet was dispersed with a pasteur pipette. Freshly made lysis buffer contained (final concentrations): 50 mM citric-citrate, pH 6.0, 50 mM 2-mercaptoethanol, 50 μM NADPH (in 25 mM Tris, pH7.5), and 2 mg/ml bovine serum albumin. The sample was freeze-thawed once in dry ice-methanol, centrifuged at 1860×g for 10 min to remove debris and then further clarified by centrifugation through an Amicon MPS-1 filter unit. A 5 ml centrifugal column was prepared at 4 degrees C. in a 5 ml plastic syringe plugged with a porous plastic frit overlaid with a GF/C glass fiber filter cut with a #8 cork borer, then packed with Sephadex G-25 (Medium) in 50 mM citric-citrate, pH 6.0 to the 5 ml line, and centrifuged 5 min at 1000×g (0°) to expel liquid. The clarified supernatant (0.5 ml) was applied to the top of the column, the column was re-centrifuged at 1000×g (5 min) and the pass-through was collected in a 7 ml scintillation vial. After addition of scintillation fluid (5.5 ml), the sample was quantitated by liquid scintillation counting.

[6] = test system: R2 (MTX-resistant CCRF-CEM subline); test: Inhibition of growth of RFC-defective subline R2; format: cell-based; settings: Homo sapiens, continuous exposure, no Z, read-out: EC50 against R2
Protocol: Inhibition of growth of human cell lines in vitro. Inhibition of growth of CCRF-CEM in continuous and intermittent drug exposures was measured. EC50 values were determined from plots of percent control growth versus the logarithm of drug concentration.
TMTX was present in both conditions to establish DHFR inhibition, since that appears to be required.

[7] = 500 μM Z, 4 hr exposure to 2 μM [3H]MTX
[8] = influx of [3H]MTX, pre-incubation with solvent (MTX alone), 1 μM TMTX, or 1 μM TMTX + 0.5 mM Z
[9] = 4 hr exposure to 2 μM [3H]MTX, Z 500 μM where present

`NC(=O)c1ncn([C@@H]2O[C@H](CO)[C@@H](O)[C@H]2O)c1N` [Z, 5-amino-4-imidazolecarboxamide riboside] was tested, and the “Potentiation of 30 min accumulation (highest)” value (CCRF-CEM cells [1]; 0.5 mM Z, 10 μM [3H]MTX) was 6 fold, the “Potentiation of accumulation at 30 min” value (CCRF-CEM cells [1]; 0.5 mM Z, HBSS) was “≈ 4 fold” and the “Potentiation of accumulation at 30 min” value (CCRF-CEM cells [1]; 0.5 mM Z, MHS) was “≈ 2 fold”. The “Potentiation of accumulation at 30 min” value (CCRF-CEM cells [1]; 0.5 mM Z, standard medium) was “≈ 2 fold”, the “Effect on initial influx velocity (vi; 0-5 min)” value (CCRF-CEM cells [1]; Z added 5 min before 2 μM [3H]MTX) was “does not affect vi” and the “Delay before potentiation of [3H]MTX uptake” value (CCRF-CEM cells [1]; Z added 10 min after [3H]MTX, data not shown) was ≥ 5 min. The “Increase of MTX accumulation at 30 min” value (CCRF-CEM cells [1]; Z at 0.5-1.0 mM, 2 μM [3H]MTX) was ≥ 3 fold, the “Onset of potentiation of [3H]MTX uptake” value (CCRF-CEM cells [1]; Z present with TMTX in 10 min preincubation) was “no delay in potentiation” and the “Delay before the onset of Z potentiation” value (CCRF-CEM cells [1]; all levels of MTX (1-10 μM), 0.5 mM Z) was “≈ 10 min”. For the same compound, the “Increase of Vmax of MTX influx” value ([2]; Z addition in presence of TMTX) was “≈ 3 fold”, the “Increase of MTX polyglutamates (n≧2) accumulation” value [3, 7] was 3.5 fold and the “Increase of longer MTX polyglutamates (n≧3)” value [3, 7] was 6 fold. The “Increase of total drug accumulation” value [3, 7] was 3 fold, the “MTXGn accumulation at 1 and 10 μM [3H]MTX” value ([3]; 500 μM Z, data not shown) was “Increased MTXGn accumulation” and the “Drug retained after 2 hr efflux following 4 hr uptake” value ([3]; cells initially treated with Z, data not shown) was “much higher levels of drug”. For the same compound, the “Effect on MTX efflux rates” value (CCRF-CEM cells [4]; 0.5 mM Z during uptake and/or efflux) was “No significant difference”.
For `CN(Cc1cnc2nc(N)nc(N)c2n1)c1ccc(C(=O)N[C@@H](CCC(=O)O)C(=O)O)cc1` [MTX, 4-amino-10-methylpteroylglutamic acid], the “Intracellular radiolabel that is MTX at 30 min (HPLC)” value (CCRF-CEM cells [1]; absence of Z) was 86%, the “Intracellular radiolabel that is MTX-γ-Glu at 30 min (HPLC)” value (CCRF-CEM cells [1]; absence of Z) was 12% and the “Q10 for extent of [3H]MTX uptake at 30 min” value (CCRF-CEM cells [1]; absence of Z) was 3.45±0.15. For the same compound, the “Q10 for vi of [3H]MTX uptake (37° vs. 27°)” value (CCRF-CEM cells [1]; absence of Z) was 4.6±0.3, the “Vmax/Kt from vi (0-5 min) data” value (CCRF-CEM cells [1]; absence of Z) was 0.44 and the “Q10 for extent of [3H]MTX uptake at 30 min” value (CCRF-CEM cells [1]; presence of 0.5 mM Z) was 3.65±0.15. The “Q10 for vi of [3H]MTX uptake (37° vs. 27°)” value (CCRF-CEM cells [1]; presence of 0.5 mM Z) was 5.9±0.1, the “[MTX]i/[MTX]e at 30 min” value (CCRF-CEM cells [1]; presence of 0.5 mM Z, all MTX concentrations 1-10 μM, assuming 0.55 pL/cell) was ≥ 1.9 and the “Vmax/Kt from vi (0-5 min) data” value (CCRF-CEM cells [1]; presence of 0.5 mM Z) was 0.47. For the same compound, the “Intracellular radiolabel that is MTX at 30 min (HPLC)” value (CCRF-CEM cells [1]; presence of Z) was 83%, the “Intracellular radiolabel that is MTX-γ-(Glu)2 at 30 min (HPLC)” value (CCRF-CEM cells [1]; presence of Z) was < 1% and the “Intracellular radiolabel that is MTX-γ-Glu at 30 min (HPLC)” value (CCRF-CEM cells [1]; presence of Z) was 7.5%. For the same compound, the Kt [2, 8] was 3.0 ± 0.8 µM, the Vmax [2, 8] was 5.8 ± 0.9 pmol/min/10^7 cells and the “4-NH2-10-CH3-PteGlun, N ≧ 3” value [3, 9] was 3.8 pmol/10^7 cells. The “4-NH2-10-CH3-PteGlun, n = 1 (MTX)” value [3, 9] was 26.2 pmol/10^7 cells, the “4-NH2-10-CH3-PteGlun, n = 2” value [3, 9] was 23.8 pmol/10^7 cells and the “4-NH2-10-CH3-PteGlun, n = 3” value [3, 9] was 2.3 pmol/10^7 cells. The “4-NH2-10-CH3-PteGlun, n = 4” value [3, 9] was 1.4 pmol/10^7 cells, the “4-NH2-10-CH3-PteGlun, n = 5” value [3, 9] was 0.1 pmol/10^7 cells and the “4-NH2-10-CH3-PteGlun, n ≧ 2” value [3, 9] was 27.6 pmol/10^7 cells. The Total drug [3, 9] was 53.8 pmol/10^7 cells, the “Efflux t1/2” value (CCRF-CEM cells [4]; loading and efflux each ±0.5 mM Z (cross-over), 2 μM [3H]MTX) was 14.6 to 18.7 min and the “Protein-bound MTX level at 30 min” value (CCRF-CEM cells [5]; absence of Z) was 6.4±0.1 pmol/10^7 cells. The “Protein-bound MTX level at 30 min” value (CCRF-CEM cells [5]; presence of 0.5 mM Z) was 5.4±0.4 pmol/10^7 cells and the EC50 [6] was 2200 nM.
